In US11124554B2, “Modified ligand-gated ion channels and methods of use” (Howard Hughes Medical Institute, priority 2016, dated 2021):
Entries after “also recorded” stand apart in the source; their conditions may differ.

Tests used:
[1] = molecular target: T1, α7^L131A-GlyR (Homo sapiens, UniProt P36544, L131A); assay: Agonist potency at chimeric channel (Table 9); assay type: cell-based
T1 construct: expressed in transfected cells

[2] = tested on: α7^L131G-5HT3 HC; assay: Agonist potency at chimeric channel (Table 9); assay type: cell-based, human
[3] = molecular target: T2, α7^L131G,Q139L-GlyR (Homo sapiens, UniProt P36544, L131G/Q139L); assay: Agonist potency at chimeric channel (Table 9); assay type: cell-based
T2 construct: expressed in transfected cells
T2 sequence (P36544 with tags, fused parts or gaps L131G/Q139L): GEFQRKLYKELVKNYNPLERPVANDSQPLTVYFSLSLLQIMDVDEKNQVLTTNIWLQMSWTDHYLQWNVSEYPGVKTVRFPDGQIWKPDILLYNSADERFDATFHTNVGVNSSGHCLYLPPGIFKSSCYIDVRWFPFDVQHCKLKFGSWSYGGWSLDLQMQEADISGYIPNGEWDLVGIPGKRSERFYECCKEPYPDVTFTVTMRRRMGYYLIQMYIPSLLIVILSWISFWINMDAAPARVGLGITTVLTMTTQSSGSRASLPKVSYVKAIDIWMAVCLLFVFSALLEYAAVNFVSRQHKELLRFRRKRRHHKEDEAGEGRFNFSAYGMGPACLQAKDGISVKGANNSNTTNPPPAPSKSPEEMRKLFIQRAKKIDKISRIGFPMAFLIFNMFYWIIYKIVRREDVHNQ

[4] = molecular target: T3, α7^L131G,Y217F-GlyR (Homo sapiens, UniProt P36544, L131G/Y217F); assay: Agonist potency at chimeric channel (Table 9); assay type: cell-based
T3 construct: expressed in transfected cells
T3 sequence (P36544 with tags, fused parts or gaps L131G/Y217F): as the sequence (P36544 with tags, fused parts or gaps L131G/Q139L) above, with L117Q, Y195F counted along it

[5] = molecular target: T4, α7^Q79S,L131G-GlyR (Homo sapiens, UniProt P36544, L131G/Q79S); assay: Agonist potency at chimeric channel (Table 9); assay type: cell-based
T4 construct: expressed in transfected cells
T4 sequence (P36544 with tags, fused parts or gaps Q79S/L131G): as the sequence (P36544 with tags, fused parts or gaps L131G/Q139L) above, with Q57S, L117Q counted along it

[6] = molecular target: T5, α7^L131G,Q139L,Y217F-GlyR (Homo sapiens, UniProt P36544, L131G/Q139L/Y217F); assay: cell-based; assay type: cell-based
T5 construct: expressed in transfected cells
T5 sequence (P36544 with tags, fused parts or gaps L131G/Q139L/Y217F): as the sequence (P36544 with tags, fused parts or gaps L131G/Q139L) above, with Y195F counted along it

[7] = molecular target: T6, α7^Q79S,L131G,Q139L-GlyR (Homo sapiens, UniProt P36544, L131G/Q139L/Q79S); assay: cell-based; assay type: cell-based
T6 construct: expressed in transfected cells
T6 sequence (P36544 with tags, fused parts or gaps Q79S/L131G/Q139L): as the sequence (P36544 with tags, fused parts or gaps L131G/Q139L) above, with Q57S counted along it

[8] = molecular target: T7, α7^L131G,Q139L,Y217F-5HT3 HC (Homo sapiens, UniProt P36544, L131G/M226I/Q139L/T225I/Y217F); assay: Agonist potency at chimeric channel (Table 9); assay type: cell-based; details: α7^L131G,Q139L,Y217F-5HT3 HC
T7 construct: expressed in transfected cells
T7 sequence (P36544 with tags, fused parts or gaps L131G/Q139L/Y217F/T225I/M226I limits assumed): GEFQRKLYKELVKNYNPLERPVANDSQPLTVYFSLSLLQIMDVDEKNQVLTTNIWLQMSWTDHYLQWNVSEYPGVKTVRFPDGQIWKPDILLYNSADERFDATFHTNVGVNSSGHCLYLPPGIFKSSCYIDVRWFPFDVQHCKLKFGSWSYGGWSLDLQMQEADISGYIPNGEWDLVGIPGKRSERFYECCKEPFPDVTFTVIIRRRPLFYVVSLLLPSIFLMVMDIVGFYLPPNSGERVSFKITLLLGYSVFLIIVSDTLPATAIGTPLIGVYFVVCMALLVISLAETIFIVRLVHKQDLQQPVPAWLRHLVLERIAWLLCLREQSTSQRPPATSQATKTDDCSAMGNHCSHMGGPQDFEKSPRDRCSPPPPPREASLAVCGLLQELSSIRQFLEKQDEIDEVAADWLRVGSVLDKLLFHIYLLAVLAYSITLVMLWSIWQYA

[9] = tested on: mouse cortical neurons transfected with α7^L131G,Q139L,Y217F-GlyR; assay: Action potential firing of transfected cortical neurons; assay type: cell-based; details: 10 nM; even with >6-fold greater injected current
Source text: FIGS. 9A-9D show activity of agonists on chimeric LGICs with a L131G mutation. FIG. 9A) A graph of EC50s for L131 LBD mutants against known agonists normalized to the unmodified α7-GlyR chimeric channel (log scale). […] Unmod.: unmodified α7-GlyR chimeric LGIC. FIG. 9D) Action potentials of a cortical neuron from a mouse brain transduced with α7^L131G,Q139L,Y217F-GlyR chimeric LGIC. […] After washout (WASH) of tropisetron, neuron firing is restored.
DNA plasmids containing nucleic acids encoding a α7L131G,Q139L,Y217F-GlyR chimeric LGICs were transfected into mouse cortical neurons. […] Neuron activity was silenced by application of low concentration of agonist (FIG. 9C).

T1 sequence (P36544 with tags, fused parts or gaps L131A): as the sequence (P36544 with tags, fused parts or gaps L131G/Q139L) above, with G109A, L117Q counted along it

Structure (SMILES): c1cnc2cc3c(cc2n1)[C@@H]1CNC[C@H]3C1 [Varenicline]
- potency enhancement [1]: 8 fold
- potency enhancement [2]: 16 fold
- potency enhancement over α7-GlyR [3]: 21 fold
- potency enhancement over α7-GlyR [4]: 21 fold
- improved potency over α7-GlyR [5]: 89 fold
- improvement in potency over α7-GlyR [6]: 387 fold
- improved potency over α7-GlyR [7]: 31 fold
- improved potency over a7-5HT3 [8]: 131 fold
- suppression of action potential firing [9]: silenced; also recorded: potently suppressed
